Results taken from patent US12440507B2, “Sting inhibitors and their therapeutic uses” (CENTRE NATIONAL DE LA RECHERCHE SCIENTIFIQUE, priority 2019, dated 2025).

How the values were obtained:
[1] = biological target: T1, GST-STING139-378 (Mus musculus, UniProt Q3TBT3); assay: Pull-down using biotinylated Ap4A and recombinant proteins (in vitro binding and competition); conditions: for Competition for the binding of STING to biotinylated Ap4A: 10-fold excess of the competitor, 1 h at 4° C.
T1 construct: GST-STING (aa 139-378); made in house; host or cells: Escherichia coli BL21
T1 sequence (Q3TBT3 139-378): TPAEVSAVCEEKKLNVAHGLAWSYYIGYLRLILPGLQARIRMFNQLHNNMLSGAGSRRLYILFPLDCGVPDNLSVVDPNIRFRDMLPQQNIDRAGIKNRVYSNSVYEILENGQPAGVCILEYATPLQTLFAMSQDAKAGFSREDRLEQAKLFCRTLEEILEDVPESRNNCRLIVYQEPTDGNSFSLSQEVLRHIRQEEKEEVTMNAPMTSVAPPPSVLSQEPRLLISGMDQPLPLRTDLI

[2] = test system: MEF^Trex1−/−; assay: Ifnβ / type I interferon mRNA levels (RT-qPCR) in treated MEF^Trex1−/−; format: cell-based, mouse; conditions: 500 μM
Protocol: (§1) RNA extraction and RT-qPCR RNA was extracted using Trizol (Invitrogen) and treated with TURBO DNase (Ambion) according to manufacturers' protocols. Reverse transcription (SuperScript IV reverse transcriptase; Invitrogen) and qPCR using specific primers were performed using SYBR GREEN (Takara) master mix and LightCycler 480 cycler (Roche). mRNA levels were normalized to Gapdh mRNA levels except in zebrafish experiments where mRNA levels were normalized to zebrafish actin (zactin).
(§2) Cells were transfected with JetPrime transfection reagent (Polyplus) at 1:2 ratio with various nucleic acids at 2 μg/ml. […] Ap4A or STAN-1 (Sigma Aldrich) were used at 500 μM in Optimem.
Next, to test whether Ap4A inhibits inflammatory responses via a STING-dependent mechanism, the inventors used three-prime repair exonuclease 1 (Trex1)-deficient mouse embryonic fibroblasts (MEF^Trex1−/−—FIG. S1D), as these are a well-characterized model of pathologic chronic inflammation with STING-dependent elevated Ifnβ levels (FIG. S1D)—(15, 16). First, the inventors treated MEF^Trex1−/− with Ap4A for 45, 90 and 180 min. […] To further assess the impact of Ap4A on STING activation and to avoid potential side effects of the addition of exogenous Ap4A to cells, the inventors next performed experiments where they modulate the expression levels of LysRS, the main producer of Ap4A (9, 10). […]

[3] = test system: WT-MEF; assay: DMXAA-induced Ifnβ expression in WT-MEF; format: cell-based, mouse; conditions: 200 μM DMXAA, treated with Ap4A for 2 h
Protocol: Data are normalized to non-treated control. Unpaired t-test. **: p<0.005.
as §1, §2

[4] = test system: MEF^STING−/−; assay: DMXAA-induced Ifnβ expression in STING knockout MEF; format: cell-based, mouse; conditions: 200 μM DMXAA, treated with Ap4A for 2 h
Protocol: Data are normalized to non-treated control.
as §1, §2

Interaction of STING139-378 with Streptavidin-immobilized biotinylated Ap4A ([1]; Western blotting of pull-down)	Compound	Competition for the binding of STING to biotinylated Ap4A [1]	type I interferon expression (IFNα and IFNβ mRNA levels) ([2]; 3 hrs, RT-qPCR)	Ifnβ mRNA levels ([2]; Ap4A 45, 90 and 180 min, STAN-1 3 h, versus untreated)	Ability of DMXAA to induce Ifnβ expression on co-treatment [3]	Ability of DMXAA to induce Ifnβ expression on co-treatment [4]
	cyclic GMP-AMP [cGAMP]	displaced				
interacts	Nc1ncnc2c1ncn2[C@@H]1O[C@H](COP(=O)(O)OP(=O)(O)OP(=O)(O)OP(=O)(O)OC[C@H]2O[C@@H](n3cnc4c(N)ncnc43)[C@H](O)[C@@H]2O)[C@@H](O)[C@H]1O [Ap4A, Diadenosine tetraphosphate]	specific	decreases type I interferon expression	decreased Ifni mRNA levels	by half	no decrease was observed
